Laboratory results: patent publication US4362743A, “Antibacterial monic acid esters” (Beecham Group Limited, priority 1980, dated 1982)
Values after ≈ are worked out from the molar mass of the structure shown. Like-named read-outs stand apart in the source and are kept apart here.

Legend:
[1] = tested on: M. bovis NCTC 10131; experiment: microbe, parasite or virus in culture; assay type: cell-based; details: NCTC10131, 144 h
[2] = tested on: M. bovigenitalium ATCC 14173; experiment: Anti-mycoplasmal activity in vitro MIC; assay type: cell-based; details: 144 h
[3] = tested on: M. hyorhinis ATCC 25021; experiment: Anti-mycoplasmal activity in vitro MIC; assay type: cell-based; details: Mesomycoplasma hyorhinis, ATCC25021, 144 h
[4] = tested on: M. gallisepticum S6; experiment: Anti-mycoplasmal activity in vitro MIC; assay type: cell-based; details: Mycoplasmoides gallisepticum, 144 h; M. gallisepticum S6; Friis broth, 0.9% agarose, 6 days 37° C.; read-out: M.I.C.
[5] = tested on: M. suipneumoniae LABER; experiment: Anti-mycoplasmal activity in vitro MIC; assay type: cell-based; details: Mesomycoplasma hyopneumoniae, 144 h
[6] = tested on: M. suipneumoniae HK (2); experiment: Anti-mycoplasmal activity in vitro MIC; assay type: cell-based; details: Mesomycoplasma hyopneumoniae, 144 h
[7] = tested on: S. dublin S7; experiment: Veterinary bacteria MIC; assay type: cell-based; details: Salmonella enterica
Procedure: (§1) The values were determined using a two fold serial dilutions in Diagnostic Sensitivity Test Agar with an inoculum of 10^4 organisms and incubation for 18 hours at 37° C.

[8] = tested on: Staph. aureus 152 (pen. sens); experiment: Veterinary bacteria MIC; assay type: cell-based; details: Staphylococcus aureus, Diagnostic Sensitivity Test Agar, 18 hours 37° C.
Procedure: as §1

[9] = tested on: E. coli El; experiment: Veterinary bacteria MIC; assay type: cell-based; details: Escherichia coli
Procedure: as §1

[10] = tested on: Strep. agalactiae SPA1; experiment: Veterinary bacteria MIC; assay type: cell-based; details: Streptococcus agalactiae, Diagnostic Sensitivity Test Agar, 18 hours 37° C.
Procedure: as §1

[11] = tested on: Bord. bronchiseptica B08; experiment: Veterinary bacteria MIC; assay type: cell-based; details: Bordetella bronchiseptica; Bord. bronchiseptica B08; Diagnostic Sensitivity Test Agar, 18 hours 37° C.; read-out: M.I.C.
Procedure: as §1

[12] = tested on: Strep. dysgalactiae SPD1; experiment: Veterinary bacteria MIC; assay type: cell-based; details: Streptococcus dysgalactiae, Diagnostic Sensitivity Test Agar, 18 hours 37° C.
Procedure: as §1

[13] = tested on: Past. haemolytica PA5; experiment: Veterinary bacteria MIC; assay type: cell-based; details: Mannheimia haemolytica; Past. haemolytica PA5; Diagnostic Sensitivity Test Agar, 18 hours 37° C.; read-out: M.I.C.
Procedure: as §1

[14] = tested on: S. typhimurium S18; experiment: Veterinary bacteria MIC; assay type: cell-based; details: Salmonella enterica
Procedure: as §1

[15] = tested on: Corynebacterium pyogenes CY1; experiment: Veterinary bacteria MIC; assay type: cell-based; details: Trueperella pyogenes
Procedure: as §1

[16] = tested on: Past. multocida PA1; experiment: Veterinary bacteria MIC; assay type: cell-based; details: Pasteurella multocida, Diagnostic Sensitivity Test Agar, 18 hours 37° C.
Procedure: as §1

[17] = tested on: Erysipelothrix rhusiopathiae NCTC 8163; experiment: Veterinary bacteria MIC; assay type: cell-based; details: NCTC8163; Erysipelothrix rhusiopathiae NCTC 8163; Diagnostic Sensitivity Test Agar, 18 hours 37° C.; read-out: M.I.C.
Procedure: as §1

[18] = tested on: Staph. aureus Oxford; experiment: Veterinary bacteria MIC; assay type: cell-based; details: Staphylococcus aureus, Diagnostic Sensitivity Test Agar, 18 hours 37° C.
Procedure: as §1

[19] = tested on: Strep. suis (Group D) SPS11; experiment: Veterinary bacteria MIC; assay type: cell-based; details: Streptococcus suis
Procedure: as §1

[20] = tested on: Bord. brochiasetpica B09; experiment: Veterinary bacteria MIC; assay type: cell-based; details: Diagnostic Sensitivity Test Agar, 18 hours 37° C.
Procedure: as §1

[21] = tested on: E. coli NCTC 10418; experiment: Veterinary bacteria MIC; assay type: cell-based; details: Escherichia coli
Procedure: as §1

[22] = tested on: Strep. uberis SPU1; experiment: Veterinary bacteria MIC; assay type: cell-based; details: Streptococcus uberis, Diagnostic Sensitivity Test Agar, 18 hours 37° C.
Procedure: as §1

[23] = tested on: Past. multocida PA2; experiment: Veterinary bacteria MIC; assay type: cell-based; details: Pasteurella multocida; Past. multocida PA2; Diagnostic Sensitivity Test Agar, 18 hours 37° C.; read-out: M.I.C.
Procedure: as §1

[24] = tested on: Staph. aureus B4 (pen. resistant); experiment: Veterinary bacteria MIC; assay type: cell-based; details: Staphylococcus aureus, Diagnostic Sensitivity Test Agar, 18 hours 37° C.
Procedure: as §1

[25] = tested on: M. suipneumoniae MS16; experiment: Anti-mycoplasmal activity in vitro MIC; assay type: cell-based; details: Mesomycoplasma hyopneumoniae
[26] = Serum binding by ultrafiltration; assay type: in vitro ADME; details: pig, porcine serum, 8 mcg/ml, read-out: % bound to pig serum (converted)
Procedure: Serum binding was assessed by ultrafiltration of porcine serum containing compounds at 8 mcg/ml, and through an Amicon CF50A ultrafiltration cone. Separation of ultrafiltrate was achieved by centrifugation. Unbound concentrations of compound were measured in the ultrafiltrate by microbiological assay (B. subtilis ATCC 6633) against standards prepared in saline.

[27] = tested on: M. pneumoniae ATCC 15492; experiment: Anti-mycoplasmal activity in vitro MIC; assay type: cell-based; details: Mycoplasmoides pneumoniae, ATCC15492, 144 h; M. pneumoniae ATCC 15492; Friis broth, 0.9% agarose, 6 days 37° C.; read-out: M.I.C.
[28] = tested on: M. dispar NCTC 10125; experiment: Anti-mycoplasmal activity in vitro MIC; assay type: cell-based; details: 144 h
[29] = tested on: M. suipneumoniae UCD 1; experiment: Anti-mycoplasmal activity in vitro MIC; assay type: cell-based; details: Mesomycoplasma hyopneumoniae, UCD1, 144 h
[30] = tested on: M. suipneumoniae NB12; experiment: Anti-mycoplasmal activity in vitro MIC; assay type: cell-based; details: Mesomycoplasma hyopneumoniae

| SMILES | MIC [1] | MIC [2] | MIC [3] | MIC [4] | MIC [8] | MIC [10] | MIC [11] | MIC [12] | MIC [13] | MIC [16] | MIC [17] | MIC [18] | MIC [20] | MIC [22] | MIC [23] | MIC [24] | fraction unbound [26] | MIC [27] | MIC [28] | further results |
| --- | --- | --- | --- | --- | --- | --- | --- | --- | --- | --- | --- | --- | --- | --- | --- | --- | --- | --- | --- | --- |
| C/C(=C\C(=O)OCCCC(=NO)c1ccccc1)C[C@@H]1OC[C@H](C[C@@H]2O[C@H]2[C@@H](C)[C@H](C)O)[C@@H](O)[C@H]1O [Example 1, 4-Hydroxyimino-4-phenylbutyl monate A] | ≤ 0.01 µg/mL | 0.025 µg/mL (≈ 0.0494 µM) | 0.1 µg/mL (≈ 0.198 µM) | 10 µg/mL (≈ 19.8 µM) | 0.625 µg/mL (≈ 1.24 µM) | 0.625 µg/mL (≈ 1.24 µM) | 40 µg/mL (≈ 79.1 µM) | 0.625 µg/mL (≈ 1.24 µM) | 10 µg/mL (≈ 19.8 µM) | 2.5 µg/mL (≈ 4.94 µM) | 20 µg/mL (≈ 39.6 µM) | 0.625 µg/mL (≈ 1.24 µM) | 20 µg/mL (≈ 39.6 µM) | 0.156 µg/mL (≈ 0.309 µM) | 0.625 µg/mL (≈ 1.24 µM) | 0.625 µg/mL (≈ 1.24 µM) | < 0.08 | 2.5 µg/mL (≈ 4.94 µM) | 0.05 µg/mL (≈ 0.0989 µM) | MIC ([5]; M. suipneumoniae LABER, Friis broth, 0.9% agarose, 6 days 37° C., read-out: M.I.C.): 0.1 µg/mL (≈ 0.198 µM); MIC ([6]; M. suipneumoniae HK (2), Friis broth, 0.9% agarose, 6 days 37° C., read-out: M.I.C.): 0.25 µg/mL (≈ 0.494 µM); MIC ([7]; S7, 18 h): > 80 µg/mL; MIC ([9]; 18 h): > 80 µg/mL; MIC ([14]; TYPHIMURIUM, 18 h): > 80 µg/mL; MIC ([15]; CY1, 18 h): > 80 µg/mL; MIC ([19]; 18 h): 5 µg/mL (≈ 9.89 µM); MIC ([21]; NCTC10418, 18 h): > 80 µg/mL; MIC ([25]; 144 h, M. suipneumoniae MS16, Friis broth, 0.9% agarose, 6 days 37° C., read-out: M.I.C.): 0.1 µg/mL (≈ 0.198 µM); MIC ([29]; M. suipneumoniae UCD 1, Friis broth, 0.9% agarose, 6 days 37° C., read-out: M.I.C.): 0.25 µg/mL (≈ 0.494 µM); MIC ([30]; 144 h, M. suipneumoniae NB12, Friis broth, 0.9% agarose, 6 days 37° C., read-out: M.I.C.): 0.1 µg/mL (≈ 0.198 µM) |
| C/C(=C\C(=O)OCCCC(=NNC(N)=O)c1ccccc1)C[C@@H]1OC[C@H](C[C@@H]2O[C@H]2[C@@H](C)[C@H](C)O)[C@@H](O)[C@H]1O [Example 2, 4-Phenyl-4-semicarbazonobutyl monate A] | 0.05 µg/mL (≈ 0.0913 µM) | 0.1 µg/mL (≈ 0.183 µM) | 0.25 µg/mL (≈ 0.456 µM) | 10 µg/mL (≈ 18.3 µM) | 5 µg/mL (≈ 9.13 µM) | 2.5 µg/mL (≈ 4.56 µM) | > 80 µg/mL | 0.625 µg/mL (≈ 1.14 µM) | 80 µg/mL (≈ 146 µM) | 20 µg/mL (≈ 36.5 µM) | 10 µg/mL (≈ 18.3 µM) | 5 µg/mL (≈ 9.13 µM) | 80 µg/mL (≈ 146 µM) | 0.625 µg/mL (≈ 1.14 µM) | 5 µg/mL (≈ 9.13 µM) | 10 µg/mL (≈ 18.3 µM) | < 0.159 | 2.5 µg/mL (≈ 4.56 µM) | 0.1 µg/mL (≈ 0.183 µM) | MIC [5]: 0.25 µg/mL (≈ 0.456 µM); MIC [6]: 0.5 µg/mL (≈ 0.913 µM); MIC ([7]; S. dublin S7, Diagnostic Sensitivity Test Agar, 18 hours 37° C., read-out: M.I.C.): > 80 µg/mL; MIC ([9]; E. coli El, Diagnostic Sensitivity Test Agar, 18 hours 37° C., read-out: M.I.C.): > 80 µg/mL; MIC ([14]; S. typhimurium S18, Diagnostic Sensitivity Test Agar, 18 hours 37° C., read-out: M.I.C.): > 80 µg/mL; MIC ([15]; Corynebacterium pyogenes CY1, Diagnostic Sensitivity Test Agar, 18 hours 37° C., read-out: M.I.C.): > 80 µg/mL; MIC ([19]; Strep. suis (Group D) SPS11, Diagnostic Sensitivity Test Agar, 18 hours 37° C., read-out: M.I.C.): 10 µg/mL (≈ 18.3 µM); MIC ([21]; NCTC10418, E. coli NCTC 10418, Diagnostic Sensitivity Test Agar, 18 hours 37° C., read-out: M.I.C.): > 80 µg/mL; MIC ([25]; MS16, 144 h): 0.25 µg/mL (≈ 0.456 µM); MIC [29]: 0.5 µg/mL (≈ 0.913 µM); MIC ([30]; NB12, 144 h): 0.25 µg/mL (≈ 0.456 µM) |
